Assay [1] concerns the target T1, F508del CFTR (Homo sapiens, UniProt P13569, DEL508-508).
T1 construct: expressed in transfected cells; host or cells: HEK293 Griptite cells stably expressing F508del CFTR, transiently transfected with halide-sensitive eYFP
Put plainly: YFP fluorescence quenching functional assay (iodide influx), HEK293 cells with F508del CFTR and halide sensitive YFP. Format: cell-based. Particulars: 10 μM, 24 h, nc = 100% pc = 69.2; for remaining activity at 10 µM: HEK293, read-out: % YFP quench. Here is the method:
In addition to the MDS compounds, the 1120 Prestwick Library compounds were screened. (See FIGS. 7 to 12.) Of the compounds, one qualified as a “strong” hit, 3 as “medium” hits and 57 as “weak” hits. The Z score for the assay was 0.62. The top 50 hits were further tested in a counter screen in which the halide sensitive fluorescent compound (YFP) was expressed inside cells (Table 2). After incubation with the test compounds the ability of the cells to uptake iodide was measure by decreasing YFP fluorescence. In these cells this can only occur if functional CFTR is present at the cell surface (FIG. 7). The hits were also tested for the appearance of the Band C form of CFTR. […] The functionality of the compounds was further studied by the use of Iodide efflux assays for each compound in both BHK and the more physiologically relevant CFBE cells. […] FIG. 10 is a table of results for the 15 hit compounds which summarizes many experiments. […] The results for the best 15 compounds from the Prestwick Library, or “Prestwick 15”, are shown FIGS. 8, 9 and 10.
Strongly adhesive Human […] Kidney cells stably expressing both the human macrophage scavenger receptor (HEK293 Griptite, Invitrogen) and F508del CFTR were plated in 96-well plates and transiently transfected with pcDNA3 plasmid encoding a halide sensitive variant of eYFP. After 24-48 h later cells were exposed to 10 μM test compound in triplicate and incubated for an additional 24 h. Cells were stimulated for 20 minutes with a in a buffer containing 25 μM forskolin, 45 μM IBMX and 50 μM genistein final concentration. The high content screening assay was performed using a Cellomics platform. Iodide was added robotically to a final concentration of 50 mM and the resulting decrease in fluorescence was measured. Images were taken at time 0 and stored for subsequent use when calculating a mask so that only those cells that express YFP at time 0 are measured. The quenching was detected in 15 images taken over the course of an experiment lasting 40 seconds. Each test compound was compared to the following two controls: a negative control without drugs to assess photobleaching that may occur when the same field of view is repeatedly imaged, and a positive control with cells treated with a known potentiator. Results were generated from 150-300 cells per well.

Assay [2] deals with ΔF508-CFTR (Homo sapiens, UniProt P13569, DEL508-508). It counts as cell-based. As to conditions: Prestwick library, initial corrector assay; for hit in screen (class letter): BHK cells; for hit in screen (score): standard deviations above untreated controls. Also noted: which was then ligated into full length pNUT-CFTR linearized using Hpa1 and Pml1; expressed in transfected cells. Here is the method: BHK cells expressing 3HA-tagged ΔF508-CFTR between passages 5-8 were seeded in 96-well plates (Corning half area, black-sided, clear bottom) at 15,000 cells per well and incubated with culture medium for 24 h at 37° C. Each well was then treated with a different test compound (80 compounds per plate) for 24 h at 20 μM final concentration. The remaining 16 wells on each plate were used for control conditions. […] Cells were fixed in a 4% paraformaldehyde solution, washed with PBS, and blocked with PBS containing 5% fetal bovine serum (FBS) for 1 hat 4° C.
Sequence of ΔF508-CFTR (P13569 with tags, fused parts or gaps DEL508-508): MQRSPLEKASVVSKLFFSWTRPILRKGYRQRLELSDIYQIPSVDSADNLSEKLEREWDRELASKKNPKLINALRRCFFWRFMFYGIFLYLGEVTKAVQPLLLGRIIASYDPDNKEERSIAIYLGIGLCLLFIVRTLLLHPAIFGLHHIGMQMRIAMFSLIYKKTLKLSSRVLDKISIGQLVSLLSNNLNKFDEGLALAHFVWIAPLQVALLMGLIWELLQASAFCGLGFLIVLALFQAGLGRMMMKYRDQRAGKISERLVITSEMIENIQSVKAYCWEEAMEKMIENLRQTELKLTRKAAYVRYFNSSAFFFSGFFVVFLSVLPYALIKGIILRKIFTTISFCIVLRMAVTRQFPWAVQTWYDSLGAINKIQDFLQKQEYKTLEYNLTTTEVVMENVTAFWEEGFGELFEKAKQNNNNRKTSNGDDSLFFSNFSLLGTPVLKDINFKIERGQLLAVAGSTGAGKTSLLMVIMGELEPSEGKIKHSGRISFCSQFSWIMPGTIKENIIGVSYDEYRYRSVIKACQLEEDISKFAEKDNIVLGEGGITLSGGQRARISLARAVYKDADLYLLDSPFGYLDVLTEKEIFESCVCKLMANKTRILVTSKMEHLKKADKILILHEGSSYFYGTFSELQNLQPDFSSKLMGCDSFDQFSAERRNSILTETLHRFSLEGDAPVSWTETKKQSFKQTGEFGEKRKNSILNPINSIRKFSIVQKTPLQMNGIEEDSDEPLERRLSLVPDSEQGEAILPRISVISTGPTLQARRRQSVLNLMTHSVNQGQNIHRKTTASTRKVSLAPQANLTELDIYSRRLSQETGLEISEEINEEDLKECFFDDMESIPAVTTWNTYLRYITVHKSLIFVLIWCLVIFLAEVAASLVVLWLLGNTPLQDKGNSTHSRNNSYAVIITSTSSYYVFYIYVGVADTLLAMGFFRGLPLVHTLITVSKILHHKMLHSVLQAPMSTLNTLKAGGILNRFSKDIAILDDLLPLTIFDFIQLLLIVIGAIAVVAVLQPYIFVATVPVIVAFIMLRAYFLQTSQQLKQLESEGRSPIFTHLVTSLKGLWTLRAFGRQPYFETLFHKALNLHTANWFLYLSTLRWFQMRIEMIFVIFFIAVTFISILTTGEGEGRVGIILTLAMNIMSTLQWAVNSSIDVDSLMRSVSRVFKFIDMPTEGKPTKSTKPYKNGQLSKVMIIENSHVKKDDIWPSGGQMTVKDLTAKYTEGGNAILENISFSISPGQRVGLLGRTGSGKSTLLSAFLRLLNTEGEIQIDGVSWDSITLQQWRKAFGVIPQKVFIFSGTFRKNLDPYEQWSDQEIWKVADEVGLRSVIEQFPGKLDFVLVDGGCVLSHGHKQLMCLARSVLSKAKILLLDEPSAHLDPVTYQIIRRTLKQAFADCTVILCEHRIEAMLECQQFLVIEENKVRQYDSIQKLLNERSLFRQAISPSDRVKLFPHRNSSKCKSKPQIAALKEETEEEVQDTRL
Blocking solution was replaced with 15 μl of primary antibody solution containing 1% FBS and mouse monoclonal anti-HA antibody (1:150 dilution, Sigma) in PBS. The plates were sealed and left at 4° C. overnight. After three washes with 100 μl PBS, cells were incubated for 1 h with 15 μl of secondary antibody solution containing 1% FBS and anti-mouse IgG conjugated with FITC (1:100 dilution, Sigma) in PBS. Cells were again washed three times with 100 μl of PBS and analyzed in a plate reader (Analyst™ HT96.384, Biosystems; 488 nm excitation/510 nm emission). […] The mean fluorescence of four untreated wells was used as the background signal when calculating deviations of the 80 compound-treated wells. Hits were then cherry-picked into reservoir plates and re-tested in duplicate using the same assay.
BHK cells expressing ΔF508-CFTR were incubated with test compounds (20 μM) for 24 hours at 37° C. in a 96 well format. Plasma membrane expression of ΔF508-CFTR was then assayed by immunofluorescence using a primary antibody directed against the inserted 3HA tag and a secondary antibody conjugated with a fluorophore (FITC). […] The positive compounds were selected and retested in duplicate to obtain an N of 3. At the re-screening stage, the intrinsic fluorescence of each potential hit was also measured and the fluorescent ones were not considered further.
Screening was performed using BHK cells that stably express F508-CFTR bearing three tandem haemagglutinin-epitope tags (3HA) and linker sequences in the fourth extracellular loop after amino acid 901 (Howard et al., 1995; Carlile et al., 2007; Robert et al., 2008). […] Screening was performed using the Prestwick Chemical Library of 1120 high-purity compounds.

Where a name gives a salt, the structure may show the parent alone.

T1 sequence (P13569 with tags, fused parts or gaps DEL508-508): as above

As for `c1ccc2[nH]c(-c3cscn3)nc2c1` [Tiabendazole], the remaining activity at 10 µM in assay [1] amounted to 907%. For the same compound, in assay [2], the “hit in screen (class letter)” value was “W (Medium and weak hits were defined as compounds giving a cell fluorescence signal that was between 2 and 3 or 1 and 2 standard deviations, respectively, above untreated control wells)”; the “hit in screen (score)” value is reported as 1.0.

With `CCN(CC)C(=O)N1CCN(C)CC1` [Diethylcarbamazine citrate], in assay [1], the remaining activity at 10 µM was 907%. In assay [2], the “hit in screen (class letter)” value is “W (Medium and weak hits were defined as compounds giving a cell fluorescence signal that was between 2 and 3 or 1 and 2 standard deviations, respectively, above untreated control wells)”; the “hit in screen (score)” value was found to be 1.2.

Regarding `N[C@H]1CONC1=O` [(S)-(−)-Cycloserine], in assay [1], the “% YFP quench” value is listed as 98%. Moreover, in assay [2], the “hit in screen (class letter)” value was “W (Medium and weak hits were defined as compounds giving a cell fluorescence signal that was between 2 and 3 or 1 and 2 standard deviations, respectively, above untreated control wells)”; the “hit in screen (score)” value is 1.4.

Regarding Cytisine (−), the “% YFP quench” value in assay [1] was 97%. In assay [2], the “hit in screen (class letter)” value is “M (Medium and weak hits were defined as compounds giving a cell fluorescence signal that was between 2 and 3 or 1 and 2 standard deviations, respectively, above untreated control wells)”; the “hit in screen (score)” value is listed as 2.0.

On to `CC1=CC(=O)C2=C(C)C[C@H](O)[C@@H]3[C@H](OC(=O)[C@H]3C)[C@H]12` [Austricine hydrate], for which the remaining activity at 10 µM in assay [1] came out at 91%. In assay [2], the “hit in screen (class letter)” value is “W (Medium and weak hits were defined as compounds giving a cell fluorescence signal that was between 2 and 3 or 1 and 2 standard deviations, respectively, above untreated control wells)”; the “hit in screen (score)” value was found to be 1.1.

With `C[C@]12CCC(=O)C=C1CC[C@@H]1[C@@H]2[C@@H](O)C[C@@]2(C)[C@H]1CC[C@]2(O)C(=O)CO` [Hydrocortisone base], the “% YFP quench” value in assay [1] is 94%. Moreover, in assay [2], the “hit in screen (class letter)” value was “W (Medium and weak hits were defined as compounds giving a cell fluorescence signal that was between 2 and 3 or 1 and 2 standard deviations, respectively, above untreated control wells)”; the “hit in screen (score)” value is 1.1.

Turning to `Cl.OC(CCN1CCCC1)(c1ccccc1)C1CCCCC1` (centres unmarked) [Procycildine hydrochloride], in assay [1], the “% YFP quench” value is listed as 92%. For the same compound, in assay [2], the “hit in screen (class letter)” value is “W (Medium and weak hits were defined as compounds giving a cell fluorescence signal that was between 2 and 3 or 1 and 2 standard deviations, respectively, above untreated control wells)”; the “hit in screen (score)” value came to 1.1.

As for `CC(C)Cc1ccc([C@H](C)C(=O)O)cc1` [S-(+)-Ibuorofen], in assay [1], the “% YFP quench” value turned out to be 91%. In addition, in assay [2], the “hit in screen (score)” value is given as 1.1.

Consider `c1ccc(CNc2ncnc3[nH]cnc23)cc1` [Aminopurine, 6-benzyl], for which the “% YFP quench” value in assay [1] is 89%. In assay [2], the “hit in screen (class letter)” value was “W (Medium and weak hits were defined as compounds giving a cell fluorescence signal that was between 2 and 3 or 1 and 2 standard deviations, respectively, above untreated control wells)”; the “hit in screen (score)” value was 1.6.

As to `Nc1ncnc2c1ncn2[C@@H]1O[C@H](COP(=O)(O)O)[C@@H](O)[C@H]1O.O` [Adenosine 5′-monophosphate monohydrate], the remaining activity at 10 µM in assay [1] was determined as 78%. In assay [2], the “hit in screen (class letter)” value is “W (Medium and weak hits were defined as compounds giving a cell fluorescence signal that was between 2 and 3 or 1 and 2 standard deviations, respectively, above untreated control wells)”; the “hit in screen (score)” value is 1.1.

As to `O=C1CCC(N2C(=O)c3ccccc3C2=O)C(=O)N1` (centres unmarked) [Thalidomide], the remaining activity at 10 µM in assay [1] was determined as 92%. Further, in assay [2], the “hit in screen (class letter)” value is “M (Medium and weak hits were defined as compounds giving a cell fluorescence signal that was between 2 and 3 or 1 and 2 standard deviations, respectively, above untreated control wells)”; the “hit in screen (score)” value is 2.0.

`CCn1cc(C(=O)O)c(=O)c2cc(F)c(N3CCNCC3)nc21` [Enoxacin]: in assay [1], the remaining activity at 10 µM was found to be 84%. For the same compound, in assay [2], the “hit in screen (class letter)” value is “W (Medium and weak hits were defined as compounds giving a cell fluorescence signal that was between 2 and 3 or 1 and 2 standard deviations, respectively, above untreated control wells)”; the “hit in screen (score)” value turned out to be 1.0.

In the case of `Clc1ccc(Cn2c(CN3CCCC3)nc3ccccc32)cc1` [Clemizole hydrochloride], the remaining activity at 10 µM in assay [1] is 84%. Further, in assay [2], the “hit in screen (class letter)” value was “W (Medium and weak hits were defined as compounds giving a cell fluorescence signal that was between 2 and 3 or 1 and 2 standard deviations, respectively, above untreated control wells)”; the “hit in screen (score)” value worked out at 1.5.

With Oubinidine, the “% YFP quench” value in assay [1] turned out to be 104%. Also, in assay [2], the “hit in screen (class letter)” value was “W (Medium and weak hits were defined as compounds giving a cell fluorescence signal that was between 2 and 3 or 1 and 2 standard deviations, respectively, above untreated control wells)”; the “hit in screen (score)” value stood at 1.2.

As for `COC1=CC(=O)O[C@@H](/C=C/c2ccccc2)C1` [Kawain], in assay [1], the remaining activity at 10 µM was 111%. Besides, in assay [2], the “hit in screen (class letter)” value was “W (Medium and weak hits were defined as compounds giving a cell fluorescence signal that was between 2 and 3 or 1 and 2 standard deviations, respectively, above untreated control wells)”; the “hit in screen (score)” value is on record as 1.1.

As for `CCN(CC)CC#CCOC(=O)C(O)(c1ccccc1)C1CCCCC1` (centres unmarked) [Oxybutynin chloride], the remaining activity at 10 µM in assay [1] came to 83%. Further, in assay [2], the “hit in screen (class letter)” value was “W (Medium and weak hits were defined as compounds giving a cell fluorescence signal that was between 2 and 3 or 1 and 2 standard deviations, respectively, above untreated control wells)”; the “hit in screen (score)” value came out at 1.2.

As to `CC[C@H]1OC(=O)[C@H](C)[C@@H](O[C@H]2C[C@@](C)(OC)[C@@H](O)[C@H](C)O2)[C@H](C)[C@@H](O[C@@H]2O[C@H](C)C[C@H](N(C)C)[C@H]2O)[C@](C)(O)C[C@@H](C)/C(=N\OCOCCOC)[C@H](C)[C@@H](O)[C@]1(C)O` [Roxithromycin], the remaining activity at 10 µM in assay [1] stood at 100%. For the same compound, in assay [2], the “hit in screen (class letter)” value is “W (Medium and weak hits were defined as compounds giving a cell fluorescence signal that was between 2 and 3 or 1 and 2 standard deviations, respectively, above untreated control wells)”; the “hit in screen (score)” value was determined as 1.2.

As for `CC(=O)c1ccc(S(=O)(=O)NC(=O)NC2CCCCC2)cc1` [Acetohexamide], the remaining activity at 10 µM in assay [1] was 88%. In addition, in assay [2], the “hit in screen (class letter)” value was “W (Medium and weak hits were defined as compounds giving a cell fluorescence signal that was between 2 and 3 or 1 and 2 standard deviations, respectively, above untreated control wells)”; the “hit in screen (score)” value worked out at 1.0.

Source of the values: patent US20110009351A1, “SCREENING ASSAY TO IDENTIFY CORRECTORS OF PROTEIN TRAFFICKING DEFECTS” (Traffick Therepeutics Inc., priority 2007, published 2011).
